Measured values taken from patent US20170202932A1, “METHODS FOR INHIBITING NEURON APOPTOSIS AND NECROSIS” (NEWSOUTH INNOVATIONS PTY LIMITED, priority 2012, published 2017).

Target: T1, recombinant mouse TRPC3b channels (Mus musculus, UniProt Q9QZC1, R524G)
T1 construct: Full length mouse TRPC3 transcripts were obtained by PCR; expressed in transfected cells; host or cells: HEK293 cells stably expressing TRPC3b, additionally transfected with mGluR1-eYFP cDNA
T1 sequence (Q9QZC1 75-910 R524G): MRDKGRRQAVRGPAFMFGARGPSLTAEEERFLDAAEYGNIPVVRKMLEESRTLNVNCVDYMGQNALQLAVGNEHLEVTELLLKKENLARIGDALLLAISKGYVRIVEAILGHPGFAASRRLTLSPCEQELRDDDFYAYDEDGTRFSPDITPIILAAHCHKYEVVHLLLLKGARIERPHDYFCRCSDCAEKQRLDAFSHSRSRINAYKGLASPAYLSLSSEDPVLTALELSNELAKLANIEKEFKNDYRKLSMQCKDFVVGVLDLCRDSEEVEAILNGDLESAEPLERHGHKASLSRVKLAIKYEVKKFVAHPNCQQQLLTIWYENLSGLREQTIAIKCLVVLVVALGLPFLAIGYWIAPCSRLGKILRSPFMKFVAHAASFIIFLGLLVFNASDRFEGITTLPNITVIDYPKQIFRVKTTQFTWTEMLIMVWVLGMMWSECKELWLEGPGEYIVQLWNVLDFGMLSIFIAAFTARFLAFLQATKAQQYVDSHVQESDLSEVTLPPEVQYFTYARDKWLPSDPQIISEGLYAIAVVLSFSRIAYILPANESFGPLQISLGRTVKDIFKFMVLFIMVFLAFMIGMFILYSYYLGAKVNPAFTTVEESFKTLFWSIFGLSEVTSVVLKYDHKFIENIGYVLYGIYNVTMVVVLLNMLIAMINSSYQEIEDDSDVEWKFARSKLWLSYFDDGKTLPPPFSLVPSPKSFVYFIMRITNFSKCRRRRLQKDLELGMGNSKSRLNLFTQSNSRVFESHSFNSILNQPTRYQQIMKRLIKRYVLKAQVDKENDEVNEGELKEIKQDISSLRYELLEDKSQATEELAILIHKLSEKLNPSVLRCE
Assay: Fluo-4 Ca2+ imaging of DHPG-activated Ca2+ entry, HEK293 cells co-expressing TRPC3b and mGluR1
Type: cell-based
Details: genistein 200 μM pre-application, n=6, without genistein 1.56±0.0713
Experimental: The TRPC3-mediated Ca^2+ entry through two distinct activation pathways was assessed by microfluorometric Ca^2+ imaging: i) Ca^2+ entry via the M3 receptor-PLCB-DAG pathway endogenous to HEK293 cells, using Indo-1 as a Ca^2+ indicator; and ii) Ca^2+ entry via mGluR1-PLCB-DAG through co-expression of the mGluR1, using Fluo-4 as a Ca^2+ indicator.
Cells were grown in DMEM media on 18 mm circular coverslips coated with poly-D-lysine (25 μg/ml) and collagen (25 μg/ml) at 1:1 ratio. The cells were washed with HPSS. The coverslips were then incubated with HPSS and 0.1% pluronic acid, along with either 1 μM Indo-1AM or Fluo-4AM Ca^2+ indicator (Invitrogen, U.S.A.) for an hour prior to the experiment. […]
For Fluo-4 experiments, the cells were mounted on an inverted microscope (DMIL, Leica) with a 20× 0.4NA objective (Leica HCX PL Fluotar), and illuminated with a mercury lamp using a GFP filter (part no. 11504164; excitation 470/40 nm, dichroic 500 nm, emission 525/50 nm) every 5 seconds (Andor iXon+ 885 EMCCD Camera, Ireland) with a gated shutter (Ludl Electronic Products, U.S.A.), controlled via Andor IQ (v1.8.1) software. The images were then analysed using Image J software (NIH, U.S.A.) with individual regions of interest (ROIs) identified for HEK293 cells responding to M3 or mGluR1 agonists with increased Ca^2+ signal. […]

Fluo-4 fluorescence F/F0 (TRPC3-mediated Ca2+ entry after DHPG): 1.031±0.0144
Compound: O=c1c(-c2ccc(O)cc2)coc2cc(O)cc(O)c12 [genistein, 4′, 5,7-trihydroxyisoflavone]
